Experimental data published in PMC3517606 (2012).

Legend:
[1] = system: F21T (DNA, G4) GGGTTAGGGTTAGGGTTAGGG; assay: FRET melting; conditions: 60 mM KCl; 10 mM Tris-HCl, pH 7.4; 1 µM DNA, [Ru]:[DNA] = 2:1
[2] = system: HTG21 (DNA, G4) GGGTTAGGGTTAGGGTTAGGG; assay: absorption titration; conditions: 100 mM NaCl; 10 mM Tris-HCl, 25 °C
[3] = system: ds26 (DNA, duplex) CAATCGGATCGAATTCGATCCGATTG; assay: emission spectroscopy; conditions: 100 mM KCl; 10 mM Tris-HCl, pH 7.4; 4 µM Ru, 8 µM DNA
[4] = system: HTG21 (DNA, G4) GGGTTAGGGTTAGGGTTAGGG; assay: luminescence titration, Scatchard; conditions: 100 mM KCl; 10 mM Tris-HCl, pH 7.4, 20 °C; 4 µM Ru; DNA concentration in base pairs

Which ΔTm [1] does the source give for `Oc1ccc(-c2nc3c4cccnc4c4ncccc4c3[nH]2)cc1.[Ru+2].c1cnc2c(c1)ccc1cccnc12.c1cnc2c(c1)ccc1cccnc12` [Δ-Ru] here?
Its ΔTm is 15.0 °C.

What about the Kb [2] of the same molecule?
Its Kb is 8.3e+06 M⁻¹.

And the binding [3]?
Its binding is “weak”.

What about the Kb [4] of the same molecule?
The Kb was 720000 M⁻¹.

Which ΔTm [1] does the source give for `Oc1ccc(-c2nc3c4cccnc4c4ncccc4c3[nH]2)cc1.[Ru+2].c1cnc2c(c1)ccc1cccnc12.c1cnc2c(c1)ccc1cccnc12` [Λ-Ru] here?
Its ΔTm is 22.7 °C.

And the Kb [2]?
The Kb was 8.9e+06 M⁻¹.

What about the binding [3] of the same molecule?
Its binding is “weak”.

And the Kb [4]?
Its Kb is 930000 M⁻¹.

What does the source list for `Oc1ccc(-c2nc3c4cccnc4c4ncccc4c3[nH]2)cc1.[Ru+2].c1cnc2c(c1)ccc1cccnc12.c1cnc2c(c1)ccc1cccnc12` [Λ/Δ-Ru]?
ΔTm [1]: 18.4 °C; binding [3]: weak; Kb [4]: 910000 M⁻¹
